Assay results from patent US11827917B1, “Methods for the conversion of fermentable sugars to ethanol” (Colorado State University Research Foundation, priority 2020, dated 2023).
Marks after values point to notes of the source that are not given here.

How the values were obtained:
Assay type in all cases: cell-based, Saccharomyces cerevisiae
S. cerevisiae JAY 270 = assay: Serum-bottle cultivation in YPD: biomass, glycerol, ethanol yields
Method: Procedure: Cultivations in serum bottles were used to determine the effect of the best-performing screened chemicals on the ethanol yield. S. cerevisiae JAY 270 was pre-cultured in 100 mL of YPD medium in 200-mL serum bottles overnight in a shaker at 30° C. and 200 rpm. The precultured yeast cells were collected and washed twice as described above. The cell pellet was resuspended in about 10 mL of 0.8% (w/v) NaCl and the cell concentration was estimated as OD600. TyrOH, PheOH, and TrpOH were added to 30 mL of YPD medium in 100-mL serum bottles at 0.05% and 0.2% respectively. The same amount of DMSO was added to YPD medium to serve as the control for TrpOH and TyrOH treatments. The bottles were inoculated with the prepared yeast cells to obtain an initial cell concentration of OD600=0.2. The serum bottles were sealed and cultured in a shaker at 30° C. and 200 rpm for 24 h. Each condition had three biological replicates.
(§1) Analytical methods: Cell growth was evaluated by monitoring OD600 and cell dry mass concentration. For dry mass measurements, 1.0 mL of culture was transferred to a pre-dried and pre-weighed 2-mL centrifuge tube. The tubes were centrifuged for 10 min at 14000 rpm using a microcentrifuge, and then the cell pellets were dried in an oven for 3 days at 65° C. The cell dry mass was determined by subtracting the initial tube mass from the dried mass of tube with cells. The concentrations of glucose, ethanol, and glycerol were measured via HPLC (Shimadzu LC20A series) outfitted with a refractive index detector and using an Aminex HPX-87H (300×7.8 mm) organic acid column and Cation H+ guard cartridge (Bio Rad Laboratories, Hercules, CA). The column was maintained at 65° C. and the mobile phase was 5 mM sulfuric acid with a flow rate of 0.6 mL/min. Standard compound solutions were used to calibrate the HPLC. Each sample was analyzed three times by HPLC.

S. cerevisiae ATCC 26603 = assay: Serum-bottle cultivation in YPD, different yeast strains; conditions: 0.2%
Method: as §1
(§2) Procedure: Seven yeast strains (S. cerevisiae ATCC 26603, S. cerevisiae JAY 238, S. cerevisiae JAY 240, S. cerevisiae JAY 241, S. paradoxus JAY 1502, S. kudriavzezii JAY 1503, and S. mikatae JAY 1504) were pre-cultured in 30 mL of YPD medium in 100 mL serum bottle overnight in a shaker at 30° C. and 200 rpm. The precultured yeast cells of each strains were collected and washed twice. Finally, the cell pellet was resuspended in about 10 mL 0.8% (w/v) NaCl and the OD600 measured. TyrOH, PheOH, and TrpOH were added to 30 mL of YPD medium in 100-mL serum bottles at 0.2% (w/v) respectively. The same amount of DMSO was added in YPD medium and served as control to the TrpOH and TyrOH treatments. The prepared yeast cells were added to obtain the initial cell concentration at OD600=0.2. The serum bottles were sealed and cultured in a shaker at 30° C. and 200 rpm for 24 h. There were three biological replicates for each treatment.

S. cerevisiae JAY 238 = assay: as above; conditions: 0.2%
Method: as §1, §2

S. cerevisiae JAY 240 = assay: as above; conditions: 0.2%
Method: as §1, §2

S. cerevisiae JAY 241 = assay: as above; conditions: 0.2%
Method: as §1, §2

[1] = 0.05% (w/v), YPD, serum bottles
[2] = S. cerevisiae ATCC 26603, YPD (Table 9B)
[3] = S. cerevisiae JAY 238, YPD (Table 9B)
[4] = S. cerevisiae JAY 240, YPD (Table 9B)
[5] = S. cerevisiae JAY 241, YPD (Table 9B)

OCCc1ccccc1 [PheOH, 2-phenylethanol]
Cell dry mass concentration, % of the control (S. cerevisiae JAY 270; 0.05%): 85%
Biomass Yield (S. cerevisiae JAY 270; [1]): 0.088 + 0.001 g/g
Biomass yield % change vs. control (S. cerevisiae JAY 270; [1]): −11* %
EtOH yield (S. cerevisiae JAY 270; [1]): 0.40 ± 0.00 g/g
EtOH yield % change vs. control (S. cerevisiae JAY 270; [1]): 3.7%
Glycerol yield (S. cerevisiae JAY 270; [1]): 0.031 ± 0.001 g/g
Glycerol yield % change vs. control (S. cerevisiae JAY 270; [1]): −4.6%
Biomass yield vs. reference (S. cerevisiae JAY 270; 0.05%, YPD, serum bottles): −10.8%
Ethanol yield (S. cerevisiae JAY 270; 0.05%, YPD, serum bottles): 0.40 ± 0.00 g/g
Ethanol yield vs. reference (S. cerevisiae JAY 270; 0.05%, YPD, serum bottles): 3.7%
Glycerol yield (S. cerevisiae JAY 270; 0.05%, YPD, serum bottles): 0.031 ± 0.001 g/g
Glycerol yield vs. reference (S. cerevisiae JAY 270; 0.05%, YPD, serum bottles): −4.6%
OD600 (S. cerevisiae JAY 270; 0.05%, YPD, serum bottles): 3.35
Cell dry mass concentration, % of the control (S. cerevisiae JAY 270; 0.2%): 71%
Effect on yeast cell growth (S. cerevisiae JAY 270; 0.2%): reduced yeast cell growth
Biomass Yield (S. cerevisiae JAY 270; 0.2% (w/v), YPD, serum bottles): 0.064 + 0.002 g/g
Biomass yield % change vs. control (S. cerevisiae JAY 270; 0.2% (w/v), YPD, serum bottles): −35* %
EtOH yield (S. cerevisiae JAY 270; 0.2% (w/v), YPD, serum bottles): 0.41 ± 0.01 g/g
EtOH yield % change vs. control (S. cerevisiae JAY 270; 0.2% (w/v), YPD, serum bottles): 6.2* %
Glycerol yield (S. cerevisiae JAY 270; 0.2% (w/v), YPD, serum bottles): 0.025 ± 0.001 g/g
Glycerol yield % change vs. control (S. cerevisiae JAY 270; 0.2% (w/v), YPD, serum bottles): −25* %
Biomass yield vs. reference (S. cerevisiae JAY 270; 0.2%, YPD, serum bottles): −35.3%
Effect on ethanol yield (S. cerevisiae JAY 270; 0.2%, YPD, serum bottles): increased the ethanol yield significantly
Ethanol yield (S. cerevisiae JAY 270; 0.2%, YPD, serum bottles): 0.41 ± 0.01 g/g
Ethanol yield vs. reference (S. cerevisiae JAY 270; 0.2%, YPD, serum bottles): 6.2%
Glycerol yield (S. cerevisiae JAY 270; 0.2%, YPD, serum bottles): 0.025 ± 0.001 g/g
Glycerol yield vs. reference (S. cerevisiae JAY 270; 0.2%, YPD, serum bottles): −25.1%
OD600 (S. cerevisiae JAY 270; 0.2%, YPD, serum bottles): 2.44
Biomass Yield (S. cerevisiae ATCC 26603; S. cerevisiae ATCC 26603): 0.052 ± 0.001 g/g
Biomass yield % change vs. control (S. cerevisiae ATCC 26603; S. cerevisiae ATCC 26603): −22* %
EtOH yield (S. cerevisiae ATCC 26603; S. cerevisiae ATCC 26603): 0.453 ± 0.006 g/g
EtOH yield % change vs. control (S. cerevisiae ATCC 26603; S. cerevisiae ATCC 26603): +1.2%
Glycerol yield (S. cerevisiae ATCC 26603; S. cerevisiae ATCC 26603): 0.054 ± 0.001 g/g
Glycerol yield % change vs. control (S. cerevisiae ATCC 26603; S. cerevisiae ATCC 26603): −25* %
DCW (S. cerevisiae ATCC 26603; S. cerevisiae ATCC 26603, YPD): 1.40 mg
DCW Δ vs. ref (S. cerevisiae ATCC 26603; S. cerevisiae ATCC 26603, YPD): 76.4%
OD600 (S. cerevisiae ATCC 26603; S. cerevisiae ATCC 26603, YPD): 1.27
OD600 Δ vs. ref (S. cerevisiae ATCC 26603; S. cerevisiae ATCC 26603, YPD): 85.6%
Biomass Yield (S. cerevisiae ATCC 26603; [2]): 0.052 + 0.001 g/g
Biomass yield Δ vs. ref (S. cerevisiae ATCC 26603; [2]): −22.3%
Ethanol yield (S. cerevisiae ATCC 26603; [2]): 0.453 ± 0.006 g/g
Ethanol yield Δ vs. ref (S. cerevisiae ATCC 26603; [2]): 1.2%
Glycerol yield (S. cerevisiae ATCC 26603; [2]): 0.054 ± 0.001 g/g
Glycerol yield Δ vs. ref (S. cerevisiae ATCC 26603; [2]): −25.07%
Biomass Yield (S. cerevisiae JAY 238; S. cerevisiae JAY 238): 0.059 ± 0.000 g/g
Biomass yield % change vs. control (S. cerevisiae JAY 238; S. cerevisiae JAY 238): −19* %
EtOH yield (S. cerevisiae JAY 238; S. cerevisiae JAY 238): 0.472 ± 0.017 g/g
Glycerol yield (S. cerevisiae JAY 238; S. cerevisiae JAY 238): 0.041 ± 0.002 g/g
Glycerol yield % change vs. control (S. cerevisiae JAY 238; S. cerevisiae JAY 238): −0.2%
DCW (S. cerevisiae JAY 238; S. cerevisiae JAY 238, YPD): 2.00 mg
DCW Δ vs. ref (S. cerevisiae JAY 238; S. cerevisiae JAY 238, YPD): 78.4%
OD600 Δ vs. ref (S. cerevisiae JAY 238; S. cerevisiae JAY 238, YPD): 65.9%
Biomass Yield (S. cerevisiae JAY 238; [3]): 0.059 + 0.000 g/g
Biomass yield Δ vs. ref (S. cerevisiae JAY 238; [3]): −18.9%
Ethanol yield (S. cerevisiae JAY 238; [3]): 0.472 ± 0.017 g/g
Ethanol yield Δ vs. ref (S. cerevisiae JAY 238; [3]): 9.3%
Glycerol yield (S. cerevisiae JAY 238; [3]): 0.041 ± 0.002 g/g
Glycerol yield Δ vs. ref (S. cerevisiae JAY 238; [3]): −0.22%
Biomass Yield (S. cerevisiae JAY 240; S. cerevisiae JAY 240): 0.060 ± 0.000 g/g
Biomass yield % change vs. control (S. cerevisiae JAY 240; S. cerevisiae JAY 240): −19* %
EtOH yield (S. cerevisiae JAY 240; S. cerevisiae JAY 240): 0.448 ± 0.018 g/g
EtOH yield % change vs. control (S. cerevisiae JAY 240; S. cerevisiae JAY 240): +8.2* %
Glycerol yield (S. cerevisiae JAY 240; S. cerevisiae JAY 240): 0.038 ± 0.002 g/g
Glycerol yield % change vs. control (S. cerevisiae JAY 240; S. cerevisiae JAY 240): +2.2%
DCW (S. cerevisiae JAY 240; S. cerevisiae JAY 240, YPD): 2.20 mg
DCW Δ vs. ref (S. cerevisiae JAY 240; S. cerevisiae JAY 240, YPD): 78.6%
OD600 (S. cerevisiae JAY 240; S. cerevisiae JAY 240, YPD): 1.89
OD600 Δ vs. ref (S. cerevisiae JAY 240; S. cerevisiae JAY 240, YPD): 72.2%
Biomass Yield (S. cerevisiae JAY 240; [4]): 0.060 + 0.000 g/g
Biomass yield Δ vs. ref (S. cerevisiae JAY 240; [4]): −19.1%
Ethanol yield (S. cerevisiae JAY 240; [4]): 0.448 ± 0.018 g/g
Ethanol yield Δ vs. ref (S. cerevisiae JAY 240; [4]): 8.2%
Glycerol yield (S. cerevisiae JAY 240; [4]): 0.038 ± 0.002 g/g
Glycerol yield Δ vs. ref (S. cerevisiae JAY 240; [4]): 2.20%
Biomass Yield (S. cerevisiae JAY 241; S. cerevisiae JAY 241): 0.042 ± 0.001 g/g
Biomass yield % change vs. control (S. cerevisiae JAY 241; S. cerevisiae JAY 241): −28* %
EtOH yield (S. cerevisiae JAY 241; S. cerevisiae JAY 241): 0.399 ± 0.003 g/g
Glycerol yield (S. cerevisiae JAY 241; S. cerevisiae JAY 241): 0.037 ± 0.002 g/g
Glycerol yield % change vs. control (S. cerevisiae JAY 241; S. cerevisiae JAY 241): −31* %
DCW (S. cerevisiae JAY 241; S. cerevisiae JAY 241, YPD): 2.10 mg
DCW Δ vs. ref (S. cerevisiae JAY 241; S. cerevisiae JAY 241, YPD): 80.8%
OD600 (S. cerevisiae JAY 241; S. cerevisiae JAY 241, YPD): 1.45
OD600 Δ vs. ref (S. cerevisiae JAY 241; S. cerevisiae JAY 241, YPD): 69.9%
Biomass Yield (S. cerevisiae JAY 241; [5]): 0.042 + 0.001 g/g
Biomass yield Δ vs. ref (S. cerevisiae JAY 241; [5]): −27.9%
Ethanol yield (S. cerevisiae JAY 241; [5]): 0.399 ± 0.003 g/g
Ethanol yield Δ vs. ref (S. cerevisiae JAY 241; [5]): 0.4%
Glycerol yield (S. cerevisiae JAY 241; [5]): 0.037 ± 0.002 g/g
Glycerol yield Δ vs. ref (S. cerevisiae JAY 241; [5]): −31.00%
